Assay results published in patent US9669030B2, “Hydantoin derivatives as Kv3 inhibitors” (AUTIFONY THERAPEUTICS LIMITED, priority 2012, dated 2017).

Test system: chinchilla model of acute noise-induced hearing loss
Assay: chinchilla model of acute noise-induced hearing loss, auditory brainstem response thresholds
Type: in vivo
Settings: 60 mg/kg intraperitoneal, doses 12 hours apart, five pre- and five post-noise, 105 dB SPL noise centered at 4 kHz for 6 hours, 21 days after noise exposure, 2, 4, 6, 8 kHz, p<0.01
From the text: The otoprotective efficacy (i.e. the ability to prevent or reduce the development of permanent acute noise-induced hearing loss) of an exemplary Kv3 modulator, Example 64 described within WO2011069951A1 ((5R)-5-ethyl-5-methyl-3-[2-({4-methyl-3-[(trifluoromethyl)oxy]phenyl}oxy)-5-pyrimidinyl]-2,4-imidazolidinedione), referred to herein as “COMPOUND X”, was investigated using a chinchilla model of acute noise-induced hearing loss, as follows:
Subjects comprised male, 3 year old chinchillas (Laniger), 10 animals per group. Chinchillas were housed in the study facility for a minimum of 5 days prior to noise exposure. Food and water were available ad libitum. Animals were maintained at 21° C. on a 12/12 light/dark cycle. […]
Auditory brainstem responses (ABRs) were collected prior to noise exposure and 21 days after noise exposure. […] Thresholds were measured in response to tone-bursts with 1 ms rise/fall and a 0 ms plateau gated by a Blackman envelope and centred at the frequencies of 2, 4, 6 and 8 kHz, presented at 30/s. […]
The thresholds for ABRs at the four different sound frequencies at day 21 post-noise exposure were compared to the thresholds at baseline, prior to noise exposure in order to determine a threshold shift for each animal. The data were then analysed using a 2-way ANOVA, with treatment and frequency as main factors.

CC[C@@]1(C)NC(=O)N(c2cnc(Oc3ccc(C)c(OC(F)(F)F)c3)nc2)C1=O [COMPOUND X, (5R)-5-ethyl-5-methyl-3-[2-({4-methyl-3-[(trifluoromethyl)oxy]phenyl}oxy)-5-pyrimidinyl]-2,4-imidazolidinedione]
permanent threshold shift in ABRs: significantly reduced
